Experimental data taken from patent US20230123334A1, “AMINO LIPID COMPOUND, PREPARATION METHOD THEREFOR, AND APPLICATION THEREOF” (SHENZHEN SHENXIN BIOTECHNOLOGY CO., LTD., priority 2020, published 2023).

Legend:
Assay type in all cases: cell-based
[1] = test system: embryonic stem cells (hESC2); assay: Screening as mRNA vectors in embryonic stem cells; details: 50 ng EGFP mRNA per well
Protocol: (§1) Cell line: embryonic stem cells (hESC2, cultured according to reported methods: Stem Cells, 2005, 23, 544-549)
(§2) Medium: mTeSR1 (STEMCELL)
Mode of screening: cell transfection on 96-well plate
(§3) Detection (readout): percentage of the number of GFP fluorescent cells relative to the total number of cells. Lipofectamine Stem was used as the positive control.
Method: the experimental method was basically the same with Example 10, and the mass of EGFP mRNA for transfection was 50 ng per well.

MCF7 cells [2] = assay: Transfection of MCF7 cell line, DNA vectors; set-up: concentration or dose not given beside the values; details: plasmid DNA, GFP cells / total cells
Method in brief: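 Read-out: GFP-positive cells as % of all Hoechst-stained nuclei after 96-well transfection of MCF7 cells grown in serum-supplemented DMEM. Positive control was Lipofectamine2000, used per manufacturer's protocol.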

[3] = test system: embryonic stem cells (hESC2); assay: Screening as DNA vectors in embryonic stem cells, flow cytometry; details: 75 ng plasmid DNA, 48 hours after transfection, flow cytometer
Excerpt: as §1, §2
(§4) Mode of screening: cell transfection on 96-well plates
as §3
Method: an 8-channel pipette was used for sample addition. The contents shown were for a single well of a 96-well flat plate.
1. Stem cells were cultured to 3-5×10^4 cells per well in a 96-well plate treated with matrigel.
2. The compound (0.01 mmol) prepared in Example 1 was dissolved in 1 mL of anhydrous ethanol. After ultrasonically dissolved, 10 μL of the resultant amino lipid solution in ethanol was taken and mixed with 5 μL of DOPE solution in ethanol ([…]). The obtained mixture was then added with 35 μL of 0.2 M sodium acetate buffer (pH 5.6), and vortexed at a constant rotating speed for 30 s. Then, 4 μL was taken from the obtained product and added to 46 μL of 0.02 M sodium acetate buffer (pH 5.6), and vortexed at a constant rotating speed for 30 s to form a liposome solution. 5 μL of this liposome solution was mixed with 75 ng of plasmid DNA (pSin-EGFP-IRES-Puro) dissolved in 5 μL of 0.02 M sodium acetate buffer, and allowed to stay at room temperature for 30 min to form a lipid/DNA transfection complex.
3. 10 μL of the lipid/DNA transfection complex was incubated at room temperature for 30 min, followed by addition of 90 μL mTeSR1 medium was added and mixing with a pipette. 100 μL of the mixture was added to separate wells of a 96-well culture plate and placed in an incubator containing 5% CO2 at 37° C.
4. 48 hours after transfection, the cells were digested with 0.05% Trypsin-EDTA. The cells were resuspended in a PBS buffer and filtered. The cell suspension was placed in a flow cytometer and the number of GFP-expressing cells in no less than 2000 cells was measured so as to obtain the absolute efficiency of cell transfection. The relative efficiency of cell transfection was obtained by comparing the cell transfection efficiency with the positive control Lipofectamine Stem.

cardiomyocytes [4] = assay: Screening as DNA vectors in cardiomyocytes; set-up: concentration or dose not given beside the values; details: method as Example 4
Protocol: Cell line: cardiomyocytes (obtained from induced differentiation of hESC according to reported methods: J. Mol. Cell. Cardiol. 2011, 51, 288-298)
(§5) Medium: DMEM supplemented with 10% fetal bovine serum (Invitrogen)
as §4
(§6) Detection (readout): percentage of the number of GFP fluorescent cells relative to the total number of cells (the total number of cells was determined using nucleus dye Hoechst). Lipofectamine Stem (Invitrogen) was used as the positive control, according to the manufacturer's instructions.
Method: the experimental method was basically the same with Example 4.

Hela cells [5] = assay: Transfection of Hela cell line, mRNA vectors; details: 50 ng EGFP mRNA per well
Method in brief: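 Transfection efficiency was scored as GFP-fluorescent cells over Hoechst-stained total nuclei, with Lipofectamine2000 as reference reagent. Each well of HeLa cells, grown in DMEM plus 10% FBS, received 50 ng EGFP mRNA.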

MCF7 cells [6] = assay: Transfection of MCF7 cell line, mRNA vectors; details: 50 ng EGFP mRNA per well
Method in brief: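 Efficiency was scored as the fraction of GFP-fluorescent cells over all Hoechst-counted cells after delivery of 50 ng EGFP mRNA per well. Cells were MCF7 grown in serum-supplemented DMEM, and Lipofectamine2000 served as reference.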

cardiomyocytes [7] = assay: Screening as mRNA vectors in cardiomyocytes; details: 50 ng EGFP mRNA per well
Protocol: Cell line: cardiomyocytes (obtained from induced differentiation of hESC according to reported methods: J Mol. Cell. Cardiol. 2011, 51, 288-298)
as §5, §4, §6
Method: the experimental method was basically the same with Example 4, and the mass of EGFP mRNA for transfection was 50 ng per well.

Hela cells [8] = assay: Transfection of Hela cell line, DNA vectors; details: 75 ng plasmid DNA, GFP cells / total cells
Method in brief: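 Amino lipid/DOPE liposomes in sodium acetate pH 5.6 were complexed with 75 ng psin-EGFP-IRES-Puro plasmid for 30 min at room temperature, then mixed with 3-5×10^4 Hela cells in DMEM/10% FBS at 37° C. Hoechst stain after 20-24 h, imaging after a further 20-24 h. Efficiency = GFP-positive cells / total nuclei.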

| Structure (SMILES) | Absolute mRNA transfection efficiency in embryonic stem cells [1] [%] | Absolute DNA transfection efficiency in MCF7 cells (MCF7 cells [2]) [%] | Absolute DNA transfection efficiency in embryonic stem cells [3] [%] | Absolute DNA transfection efficiency in cardiomyocytes (cardiomyocytes [4]) [%] | Absolute mRNA transfection efficiency in Hela cells (Hela cells [5]) [%] | Absolute mRNA transfection efficiency in MCF7 cells (MCF7 cells [6]) [%] | Absolute mRNA transfection efficiency in cardiomyocytes (cardiomyocytes [7]) [%] | Absolute DNA transfection efficiency in Hela cells (Hela cells [8]) [%] |
| --- | --- | --- | --- | --- | --- | --- | --- | --- |
| CCCCCCCCCCCNc1nc(NCCN2CCCC2)nc(SCCCCCCCCC)n1 [Compound S9N11D3] | 1.7 | 26.6 | 0.4 | 0.4 | 21.8 | 7.9 | 16.7 | 21.8 |
| CCCCCCCCCCCNc1nc(NCCN2CCN(C)CC2)nc(SCCCCCCCCC)n1 [Compound S9N11D5] | 3.3 | 17.8 | 3.0 | 2.5 | 22.5 | 18.0 | 18.0 | 22.5 |
| CCCCCCCCCCCNc1nc(NCCCN(C)C)nc(SCCCCCCCCC)n1 [Compound S9N11D6] | 5.8 | 32.6 | 1.4 | 1.9 | 27.7 | 37.2 | 5.0 | 27.7 |
| CCCCCCCCCCCNc1nc(NCCCN2CCOCC2)nc(SCCCCCCCCC)n1 [Compound S9N11D8] | 5.9 | 13.1 | 0.6 | 0.8 | 13.9 | 2.7 | 4.4 | 13.9 |
| CCCCCCCCCCCNc1nc(NCCCN2CCN(C)CC2)nc(SCCCCCCCCC)n1 [Compound S9N11D9] | 2.9 | 27.3 | 6.6 | 1.1 | 24.6 | 11.8 | 45.4 | 24.3 |
| CCCCCCCCCCCNc1nc(NCC2CCN(C)CC2)nc(SCCCCCCCCC)n1 [Compound S9N11D10] | 2.6 | 36.6 | 2.2 | 2.7 | 21.3 | 20.2 | 45.3 | 21.2 |
| CCCCCCCCCCCCNc1nc(NCCN2CCCC2)nc(SCCCCCCCCC)n1 [Compound S9N12D3] | 4.6 | 27.5 | 2.3 | 1.1 | 23.7 | 15.9 | 29.2 | 23.7 |
| CCCCCCCCCCCCNc1nc(NCCN2CCN(C)CC2)nc(SCCCCCCCCC)n1 [Compound S9N12D5] | 10.5 | 13.7 | 2.5 | 4.0 | 24.1 | 16.6 | 25.5 | 24.1 |
| CCCCCCCCCCCCNc1nc(NCCCN(C)C)nc(SCCCCCCCCC)n1 [Compound S9N12D6] | 6.1 | 21.8 | 1.9 | 1.7 | 35.5 | 22.4 | 5.3 | 35.5 |
| CCCCCCCCCCCCNc1nc(NCCCN2CCOCC2)nc(SCCCCCCCCC)n1 [Compound S9N12D8] | 11.1 | 6.2 | 1.1 | 1.5 | 6.8 | 0.7 | 2.1 | 6.8 |
| CCCCCCCCCCCCNc1nc(NCCCN2CCN(C)CC2)nc(SCCCCCCCCC)n1 [Compound S9N12D9] | 7.6 | 20.0 | 2.7 | 0.0 | 14.4 | 16.4 | 32.0 | 14.4 |
